# Source: PubChem BioAssay (NCI)
#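 Assay format: 96-well plates, 48-hour exposure. GI50 is the concentration that inhibits growth by half. The concentration for full growth arrest is given as TGI.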
# Legend:
# Experiment in all cases: NCI anticancer screen, dose series, 48 h
# [1] = system: MALME-3M melanoma
# [2] = system: HOP-92 NSCLC
# [3] = system: MDA-MB-231 breast
# [4] = system: M14 melanoma
# [5] = system: HOP-62 NSCLC
# [6] = system: SNB-19 CNS
# [7] = system: RXF 393 renal
# [8] = system: MCF7 breast
# [9] = system: HS 578T breast
# [10] = system: SK-MEL-5 melanoma
# [11] = system: TK-10 renal
# [12] = system: OVCAR-8 ovarian
# [13] = system: HCC-2998 colon
# [14] = system: HCT-116 colon
# [15] = system: SF-295 CNS
# [16] = system: SF-539 CNS
# [17] = system: BT-549 breast
# [18] = system: CCRF-CEM leukemia
# [19] = system: NCI/ADR-RES ovarian
# [20] = system: SW-620 colon
# [21] = system: HT29 colon
# [22] = system: OVCAR-3 ovarian
# [23] = system: MOLT-4 leukemia
# [24] = system: ACHN renal
# [25] = system: LOX IMVI melanoma
# [26] = system: A498 renal
# [27] = system: UACC-257 melanoma
# [28] = system: NCI-H460 lung
# [29] = system: UO-31 renal
# [30] = system: UACC-62 melanoma
# [31] = system: SN12C renal
# [32] = system: DU-145 prostate
# [33] = system: T-47D breast
# [34] = system: SF-268 CNS
# [35] = system: U251 CNS
# [36] = system: CAKI-1 renal
# [37] = system: A549 NSCLC
# [38] = system: RPMI-8226 leukemia
# [39] = system: SK-MEL-2 melanoma
# [40] = system: MDA-MB-435
# [41] = system: IGROV1 ovarian
# [42] = system: OVCAR-5 ovarian
# [43] = system: HCT-15 colon
# [44] = system: COLO 205 colon
# [45] = system: PC-3 prostate
# [46] = system: NCI-H226 lung
# [47] = system: SK-OV-3 ovarian
# [48] = system: OVCAR-4 ovarian
# [49] = system: NCI-H23 lung
# [50] = system: SK-MEL-28 melanoma
# [51] = system: 786-0 renal
# [52] = system: KM12 colon
# [53] = system: K-562 leukemia
# [54] = system: EKVX NSCLC
# [55] = system: NCI-H522 lung
# [56] = system: SNB-75 CNS
# [57] = system: HL-60(TB) leukemia
structure (smiles),measurement,setting,value
CC(=O)OC1COC(Oc2c(C)c3c4c(c2O)[C@@H](C)CC[C@@H]4[C@@H](C)C[C@H]3C=C(C)C)C(O)C1OC(C)=O (some centres not stated),GI50,[1],15.2 µM
same,TGI,[1],32.3 µM
same,GI50,[2],16.3 µM
same,TGI,[2],35.1 µM
same,GI50,[3],16.2 µM
same,TGI,[3],31.9 µM
same,GI50,[4],13.7 µM
same,TGI,[4],27.8 µM
same,GI50,[5],20 µM
same,TGI,[5],36.1 µM
same,GI50,[6],16 µM
same,TGI,[6],40.1 µM
same,GI50,[7],11.4 µM
same,TGI,[7],28.5 µM
same,GI50,[8],17.5 µM
same,TGI,[8],> 100 µM
same,GI50,[9],46.8 µM
same,TGI,[9],> 100 µM
same,GI50,[10],24.7 µM
same,TGI,[10],52.7 µM
same,GI50,[11],24.1 µM
same,TGI,[11],46.3 µM
same,GI50,[12],16 µM
same,TGI,[12],32.9 µM
same,GI50,[13],2.3 µM
same,TGI,[13],8.84 µM
same,GI50,[14],10.8 µM
same,TGI,[14],23.4 µM
same,GI50,[15],17.1 µM
same,TGI,[15],33.2 µM
same,GI50,[16],22.4 µM
same,TGI,[16],42.6 µM
same,GI50,[17],26.9 µM
same,TGI,[17],69.7 µM
same,GI50,[18],12 µM
same,TGI,[18],33.4 µM
same,GI50,[19],9.2 µM
same,TGI,[19],23.7 µM
same,GI50,[20],36.4 µM
same,TGI,[20],> 100 µM
same,GI50,[21],25.6 µM
same,TGI,[21],74.4 µM
same,GI50,[22],10.6 µM
same,TGI,[22],23.3 µM
same,GI50,[23],6.64 µM
same,TGI,[23],25.6 µM
same,GI50,[24],11 µM
same,TGI,[24],22.9 µM
same,GI50,[25],12 µM
same,TGI,[25],25.7 µM
same,GI50,[26],23.5 µM
same,TGI,[26],45.7 µM
same,GI50,[27],14.1 µM
same,TGI,[27],28.4 µM
same,GI50,[28],8.36 µM
same,TGI,[28],> 100 µM
same,GI50,[29],17.3 µM
same,TGI,[29],40.9 µM
same,GI50,[30],15.1 µM
same,TGI,[30],28.9 µM
same,GI50,[31],12.4 µM
same,TGI,[31],25.8 µM
same,GI50,[32],16 µM
same,TGI,[32],32.5 µM
same,GI50,[33],20.1 µM
same,TGI,[33],56.4 µM
same,GI50,[34],27.6 µM
same,TGI,[34],> 100 µM
same,GI50,[35],10.4 µM
same,TGI,[35],22.5 µM
same,GI50,[36],12.6 µM
same,TGI,[36],26.3 µM
same,GI50,[37],16 µM
same,TGI,[37],32.8 µM
same,GI50,[38],9.02 µM
same,TGI,[38],69.8 µM
same,GI50,[39],17.9 µM
same,TGI,[39],42.1 µM
same,GI50,[40],10.8 µM
same,TGI,[40],23.8 µM
same,GI50,[41],13.4 µM
same,TGI,[41],28.8 µM
same,GI50,[42],15.5 µM
same,TGI,[42],30.1 µM
same,GI50,[43],5.76 µM
same,TGI,[43],21.2 µM
same,GI50,[44],15.5 µM
same,TGI,[44],57.4 µM
same,GI50,[45],11.3 µM
same,TGI,[45],25.2 µM
same,GI50,[46],14.2 µM
same,TGI,[46],31.4 µM
same,GI50,[47],20.8 µM
same,TGI,[47],37.1 µM
same,GI50,[48],21.6 µM
same,TGI,[48],49.3 µM
same,GI50,[49],7.49 µM
same,TGI,[49],18.6 µM
same,GI50,[50],25.4 µM
same,TGI,[50],56.2 µM
same,GI50,[51],16.4 µM
same,TGI,[51],31.8 µM
same,GI50,[52],17.4 µM
same,TGI,[52],36.4 µM
same,GI50,[53],12.5 µM
same,TGI,[53],32.8 µM
same,GI50,[54],22.6 µM
same,TGI,[54],45.5 µM
same,GI50,[55],17.6 µM
same,TGI,[55],35 µM
CC/C=C\C[C@H](O)C/C=C1/C(=O)C(Cl)=C[C@@H]1C/C=C\CCCC(=O)OC,GI50,[1],0.451 µM
same,TGI,[1],1.23 µM
same,GI50,[2],2.57 µM
same,TGI,[2],5.46 µM
same,GI50,[3],0.71 µM
same,TGI,[3],2.9 µM
same,GI50,[56],1.88 µM
same,TGI,[56],4.65 µM
same,GI50,[57],0.453 µM
same,TGI,[57],1.91 µM
same,GI50,[4],0.611 µM
same,TGI,[4],3.43 µM
same,GI50,[5],0.53 µM
same,TGI,[5],2.25 µM
same,GI50,[6],0.946 µM
same,TGI,[6],3.31 µM
same,GI50,[7],1.09 µM
same,TGI,[7],3.58 µM
same,GI50,[8],0.185 µM
same,TGI,[8],2.44 µM
same,GI50,[9],0.626 µM
same,TGI,[9],6.76 µM
same,GI50,[10],0.489 µM
same,TGI,[10],1.77 µM
same,GI50,[11],0.946 µM
same,TGI,[11],3.09 µM
same,GI50,[12],0.347 µM
same,TGI,[12],0.864 µM
same,GI50,[13],0.701 µM
same,TGI,[13],2.22 µM
same,GI50,[14],0.275 µM
same,TGI,[14],0.576 µM
same,GI50,[15],2.4 µM
same,TGI,[15],5.83 µM
same,GI50,[16],0.818 µM
same,TGI,[16],3.05 µM
same,GI50,[17],0.341 µM
same,TGI,[17],1.04 µM
same,GI50,[18],0.412 µM
same,TGI,[18],1.73 µM
same,GI50,[19],0.581 µM
same,TGI,[19],9.14 µM
same,GI50,[20],0.318 µM
same,TGI,[20],1.29 µM
same,GI50,[21],0.406 µM
same,TGI,[21],1.07 µM
same,GI50,[22],0.525 µM
same,TGI,[22],1.88 µM
same,GI50,[23],0.472 µM
same,TGI,[23],1.95 µM
same,GI50,[24],0.378 µM
same,TGI,[24],0.849 µM
same,GI50,[25],0.258 µM
same,TGI,[25],0.52 µM
same,GI50,[26],3.65 µM
same,TGI,[26],10.2 µM
same,GI50,[28],0.558 µM
same,TGI,[28],2.22 µM
same,GI50,[29],0.413 µM
same,TGI,[29],1.29 µM
same,GI50,[30],0.27 µM
same,TGI,[30],0.717 µM
same,GI50,[31],0.426 µM
same,TGI,[31],1.33 µM
same,GI50,[32],0.692 µM
same,TGI,[32],2.7 µM
same,GI50,[33],0.985 µM
same,TGI,[33],4.37 µM
same,GI50,[34],0.505 µM
same,TGI,[34],2.34 µM
same,GI50,[35],0.339 µM
same,TGI,[35],1.39 µM
same,GI50,[36],0.523 µM
same,TGI,[36],1.89 µM
same,GI50,[37],2.64 µM
same,TGI,[37],7.52 µM
same,GI50,[38],0.21 µM
same,TGI,[38],0.88 µM
same,GI50,[39],0.843 µM
same,TGI,[39],3.52 µM
same,GI50,[40],0.404 µM
same,TGI,[40],1.22 µM
same,GI50,[41],0.867 µM
same,TGI,[41],3.35 µM
same,GI50,[42],0.754 µM
same,TGI,[42],3.07 µM
same,GI50,[43],0.387 µM
same,TGI,[43],1.67 µM
same,GI50,[44],0.55 µM
same,TGI,[44],1.69 µM
same,GI50,[45],0.54 µM
same,TGI,[45],2.33 µM
same,GI50,[46],0.537 µM
same,TGI,[46],2.26 µM
same,GI50,[47],4.72 µM
same,TGI,[47],16.5 µM
same,GI50,[48],0.723 µM
same,TGI,[48],3.21 µM
same,GI50,[49],0.523 µM
same,TGI,[49],1.97 µM
same,GI50,[50],0.432 µM
same,TGI,[50],1.31 µM
same,GI50,[51],0.486 µM
same,TGI,[51],1.56 µM
same,GI50,[52],0.387 µM
same,TGI,[52],1.14 µM
same,GI50,[53],0.269 µM
same,TGI,[53],16.7 µM
same,GI50,[54],1.03 µM
same,TGI,[54],3.51 µM
same,GI50,[55],0.271 µM
same,TGI,[55],0.592 µM
